pEC50: −log10 of the molar value.
What was measured:
HBV [1] = experiment: Anti-HBV activity in HepG2.117 cell line (Tet-off, intracellular HBV DNA, realtime PCR); assay type: cell-based; conditions: Hepatitis B virus, HepG2.117, 72 h, HepG2.117 cells, 3 days of treatment, intracellular HBV DNA; read-out: HepG2 117 EC50
[2] = Cytotoxicity in HepG2 cells, 4 days, Resazurin assay; conditions: human, HepG2 cells
HBV [3] = experiment: Anti-HBV activity in stable transfected HepG2.2.15 cell line (HBV DNA from secreted virions, realtime PCR); assay type: cell-based; conditions: Hepatitis B virus, HepG2.2.15, 144 h, HepG2.2.15 cells, 6 days of treatment, secreted virion HBV DNA; read-out: HepG2 2.15 EC50

| Compound | pEC50 (HBV [1]) | CC50 at 4 days [2] | pEC50 (HBV [3]) |
| --- | --- | --- | --- |
| Cc1cc(NC(=O)c2cccc(S(=O)(=O)NC(C)C)c2)ccc1F [Compound 73] | 6.82 | > 25000 nM | 7.14 |
| CC(C)NS(=O)(=O)c1cccc(C(=O)Nc2ccc(F)c(C(F)(F)F)c2)c1 [Compound 74] | 6.28 | > 25000 nM | 6.19 |
| N#Cc1cccc(NC(=O)c2cccc(S(=O)(=O)NC3CCCC3)c2)c1 [Compound 75] | 6.09 | > 25000 nM | 6.41 |
| CC1(NS(=O)(=O)c2cccc(C(=O)Nc3ccc(F)cc3)c2)CCCC1 [Compound 76] | 5.60 | > 25000 nM | 6.14 |
| O=C(Nc1ccc(F)cc1)c1cc(S(=O)(=O)NC2CCCC2)c(Cl)cc1Cl [Compound 78] | 6.19 | > 25000 nM | 6.05 |
| CCC(C)(C)NS(=O)(=O)c1cccc(C(=O)Nc2ccc(F)cc2)c1 [Compound 79] | 5.77 | > 25000 nM | 6.02 |
| N#Cc1ccc(NC(=O)c2cccc(S(=O)(=O)NC3CCCC3)c2)cc1 [Compound 80] | 4.75 | > 25000 nM | 5.08 |
| O=C(Nc1cccc(C(F)(F)F)c1)c1cccc(S(=O)(=O)NC2CCCC2)c1 [Compound 81] | 6.09 | 15300 nM | 6.62 |
| Cc1cc(C#N)cc(NC(=O)c2cccc(S(=O)(=O)NC3CCCC3)c2)c1 [Compound 82] | 5.50 | > 25000 nM | 5.92 |
| CC(C)NS(=O)(=O)c1cccc(C(=O)Nc2ccc(F)c(C3CC3)c2)c1 [Compound 84] | 6.04 | > 25000 nM | 6.49 |
| CCC1(NS(=O)(=O)c2cccc(C(=O)Nc3ccc(F)c(C)c3)c2)CC1 [Compound 85] | 6.42 | > 25000 nM | 7.30 |
| CCC(C)(C)NS(=O)(=O)c1cccc(C(=O)Nc2ccc(F)c(C)c2)c1 [Compound 86] | 6.96 | > 25000 nM | 6.85 |
| CCC1(NS(=O)(=O)c2cccc(C(=O)Nc3ccc(F)cc3)c2)CC1 [Compound 87] | 6.05 | > 25000 nM | 6.39 |
| CC(C)NS(=O)(=O)c1cccc(C(=O)Nc2ccc(F)c(F)c2)c1 [Compound 88] | 6.40 | > 25000 nM | 6.68 |
| CCC1(NS(=O)(=O)c2cccc(C(=O)Nc3ccc(F)cc3)c2)COC1 [Compound 89] | 6.14 | > 25000 nM | 6.27 |
| O=C(Nc1ccc(F)c(F)c1)c1cccc(S(=O)(=O)N[C@H]2CCOC2)c1 [Compound 90] | 6.29 | > 25000 nM | 6.42 |
| C#Cc1cc(NC(=O)c2cccc(S(=O)(=O)NC(C)C)c2)ccc1F [Compound 91] | 6.11 | > 25000 nM | 6.28 |
| CCc1cc(NC(=O)c2cccc(S(=O)(=O)NC(C)C)c2)ccc1F [Compound 92] | 5.59 | > 25000 nM | 6.51 |
| CCC1(NS(=O)(=O)c2cccc(C(=O)Nc3ccc(F)c(C)c3)c2)COC1 [Compound 93] | 6.66 | > 25000 nM | 7.15 |
| Cc1cc(NC(=O)c2cccc(S(=O)(=O)NC3(C)CC3)c2)ccc1F [Compound 94] | 6.64 | > 25000 nM | 6.82 |
| CC(C)NS(=O)(=O)c1cccc(C(=O)Nc2ccc(F)c(C(C)C)c2)c1 [Compound 95] | 5.55 | > 25000 nM | 5.85 |
| CC(C)NS(=O)(=O)c1cccc(C(=O)Nc2ccc(F)c(C(F)F)c2)c1 [Compound 96] | 6.54 | > 25000 nM | 7.00 |
| Cc1cc(NC(=O)c2cccc(S(=O)(=O)NC3(C)COC3)c2)ccc1F [Compound 97] | 6.43 | > 25000 nM | 6.92 |

| Compound | pEC50 (HBV [1]) | CC50 at 4 days [2] | pEC50 (HBV [3]) |
| --- | --- | --- | --- |
| CC[C@@H](C)NS(=O)(=O)c1cccc(C(=O)Nc2ccc(F)c(C)c2)c1 [Compound 98] | 6.51 | > 25000 nM | 7.00 |
| Cc1cc(NC(=O)c2cccc(S(=O)(=O)NC(C)C)c2)cc(F)c1F [Compound 99] | 6.34 | > 25000 nM | 7.05 |
| CC[C@@H](C)NS(=O)(=O)c1ccc(F)c(C(=O)Nc2ccc(F)c(F)c2)c1 [Compound 100] | 6.37 | > 25000 nM | 6.89 |
| O=C(Nc1ccc(F)c(F)c1)c1cc(S(=O)(=O)N[C@H]2CCOC2)ccc1F [Compound 101] | 5.82 | > 25000 nM | 6.37 |
| O=C(Nc1ccc(F)c(C(F)F)c1)c1cccc(S(=O)(=O)N[C@H]2CCOC2)c1 [Compound 102] | 6.48 | > 25000 nM | 6.74 |
| N#Cc1cc(NC(=O)c2cccc(S(=O)(=O)N[C@H]3CCOC3)c2)ccc1F [Compound 105] | 6.01 | > 25000 nM | 6.09 |
| COc1ccc(NC(=O)c2cccc(S(=O)(=O)N[C@H]3CCOC3)c2)cc1C [Compound 107] | 4.86 | > 25000 nM | 5.11 |
| CC1(NS(=O)(=O)c2cccc(C(=O)Nc3ccc(F)c(O)c3)c2)COC1 [Compound 108] | 5.03 | > 25000 nM | 5.14 |
| COc1cc(NC(=O)c2cccc(S(=O)(=O)NC3(C)COC3)c2)ccc1F [Compound 109] | 5.60 | > 25000 nM | 5.91 |
| C=Cc1cc(NC(=O)c2cccc(S(=O)(=O)NC3(C)COC3)c2)ccc1F [Compound 110] | 6.07 | > 25000 nM | 6.18 |
| CC1(NS(=O)(=O)c2cccc(C(=O)Nc3ccc(F)c(CO)c3)c2)COC1 [Compound 111] | 5.83 | > 25000 nM | 5.35 |
| Cc1cc(NC(=O)c2cccc(S(=O)(=O)N[C@H]3CCOC3)c2F)ccc1F [Compound 112] | 6.85 | > 25000 nM | 7.52 |
| Cc1ccc(S(=O)(=O)NC2(C)COC2)cc1C(=O)Nc1ccc(F)c(C(F)F)c1 [Compound 113] | 6.74 | > 25000 nM | 6.82 |
| COc1ccc(NC(=O)c2cccc(S(=O)(=O)NC(C)C)c2)cc1F [Compound 114] | 5.50 | > 25000 nM | 5.87 |
| Cc1cc(NC(=O)c2cccc(S(=O)(=O)NC(C)CN3CCN(C)CC3)c2)ccc1F (stereo not drawn) [Compound 116] | 6.05 | > 25000 nM | 5.71 |
| Cc1cc(NC(=O)c2cccc(S(=O)(=O)NC(C)CN3CCOCC3)c2)ccc1F (stereo not drawn) [Compound 117] | 6.30 | > 25000 nM | 6.06 |
| Cc1cc(NC(=O)c2cccc(S(=O)(=O)NC(C)Cc3ccccn3)c2)ccc1F (stereo not drawn) [Compound 120] | 6.29 | > 25000 nM | 6.28 |
| Cc1cc(NC(=O)c2cc(S(=O)(=O)N[C@H]3CCOC3)ccc2C)ccc1F [Compound 121] | 6.89 | > 25000 nM | 6.80 |
| Cc1cc(NC(=O)c2cc(S(=O)(=O)NC3(C)COC3)ccc2C)ccc1F [Compound 122] | 6.74 | > 25000 nM | 6.89 |
| Cc1cc(NC(=O)c2cc(Cl)cc(S(=O)(=O)N[C@H]3CCOC3)c2F)ccc1F [Compound 123] | 6.52 | > 25000 nM | 6.82 |
| Cc1cc(NC(=O)c2cccc(S(=O)(=O)N[C@H]3CCOC3)c2Cl)ccc1F [Compound 124] | 6.17 | > 25000 nM | 6.48 |
| Cc1cc(NC(=O)c2c(Cl)ccc(S(=O)(=O)N[C@H]3CCOC3)c2Cl)ccc1F [Compound 125] | 5.94 | > 25000 nM | 5.84 |
| Cc1cc(NC(=O)c2cccc(S(=O)(=O)N[C@H]3CCOC3)c2C)ccc1F [Compound 126] | 6.05 | > 25000 nM | 5.86 |
